Columns and labels:
[1] = test system: human colorectal adenocarcinoma HCT116 xenograft; test: Xenograft model antitumor assay; format: in vivo, nu/nu mice; conditions: for mice showing complete regression: i.v. 7 days then i.p., n=8, 31-day study
Protocol: Xenograft model antitumor assay using human colorectal adenocarcinoma cell line HCT116 was performed according to the regimen in Table 2. The 31-day study utilized four groups of mice (n=8) bearing established HCT116 xenograft with mean volumes of approximately 200 mm^3 on day one. The tumor growth and animal body weight change for each treatment group were measured three times per week (FIGS. 2 and 3). Compound 9a was administered intravenously (i.v.) for 7 days and then intraperitoneally (i.p.) at 5 and 10 mg/kg once every day (QD) to the end.
Five- to six-week-old female nu/nu mice (National Laboratory Animal Center, Taiwan) were inoculated subcutaneously with 2×10^6 human colorectal adenocarcinoma HCT116 cells in flank. When the grafted tumor volume reached the average volume of 200 mm^3, mice were randomly divided into four groups (n=8). Vehicle control and compound 9a at 5 or 10 mg/kg were administered i.v. once a day (QD) for 7 days and then i.p. once a day to the end. As an experimental control group, 100 mg/kg of compound 3 was administered i.v. once a week (QWK) to the end. The length (L) and width (W) of graft was measured every 3 to 4 days to the end, and the tumor volume was calculated as LW^2/2. Results were evaluated statistically by Student's t-test. This study was approved by the Institutional Animal Care and Use Committee (IACUC) of the National Taiwan University (Taipei, Taiwan), and was performed according to the institutional guidelines.

Topo I = target: T1, Topo I (Homo sapiens, UniProt P11387); test: Western blot analysis of Topo I expression; format: cell-based; design: endogenous in cells; host or cells: A-549; conditions: after 8 h treatment
T1 sequence (P11387 1-765): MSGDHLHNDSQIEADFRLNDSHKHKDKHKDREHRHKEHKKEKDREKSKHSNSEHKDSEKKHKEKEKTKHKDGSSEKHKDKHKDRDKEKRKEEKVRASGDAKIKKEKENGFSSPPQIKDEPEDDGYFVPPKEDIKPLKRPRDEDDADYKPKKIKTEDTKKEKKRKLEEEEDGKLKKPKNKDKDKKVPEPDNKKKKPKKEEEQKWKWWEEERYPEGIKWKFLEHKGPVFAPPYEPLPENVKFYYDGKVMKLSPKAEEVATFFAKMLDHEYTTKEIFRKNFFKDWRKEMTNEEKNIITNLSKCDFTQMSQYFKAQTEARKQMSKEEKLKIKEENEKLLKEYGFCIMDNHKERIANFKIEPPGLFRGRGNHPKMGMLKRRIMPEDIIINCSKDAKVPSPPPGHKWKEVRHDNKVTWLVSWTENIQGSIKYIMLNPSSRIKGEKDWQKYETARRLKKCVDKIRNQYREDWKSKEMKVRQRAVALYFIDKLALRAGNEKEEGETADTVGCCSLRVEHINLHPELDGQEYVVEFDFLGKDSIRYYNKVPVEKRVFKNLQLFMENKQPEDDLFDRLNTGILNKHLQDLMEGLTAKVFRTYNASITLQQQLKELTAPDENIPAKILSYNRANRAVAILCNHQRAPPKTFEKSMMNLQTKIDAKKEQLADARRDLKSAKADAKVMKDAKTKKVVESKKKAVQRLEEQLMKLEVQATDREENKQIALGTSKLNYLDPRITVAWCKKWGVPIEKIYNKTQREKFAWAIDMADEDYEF
Text: First, we determined the effect of 9a on cell cycle distribution using flow cytometry analysis. […] Because it has been shown that 1-Topo I-DNA covalent complexes enhance the transcription-dependent degradation of Topo I via a 26S proteasome pathway,^32 the effects of 9a on the expression levels of Topo I and Topo II were investigated. […] Compound 9a acts directly on Topo I and results in the accumulation of covalent Topo I-DNA complexes followed by proteasomal Topo I degradation, which is the same effect as 1 and contributes to 9a's cytotoxicity.
(§1) Cells were harvested in PBS containing proteinase inhibitors and phosphatase inhibitors, and sonicated. Whole cell lysates were separated by SDS-PAGE and transferred to Immobilon P membrane (EMD Millipore). The membrane was incubated with primary antibody followed by labeling with horseradish peroxidase (HRP)-conjugated secondary antibody (EMD Millipore). Chemilluminence substrate kit (EMD Millipore) was used for detection of membrane-bound HRP, and visualized by the Luminsence image analyzer, LAS4000 (Fuji Photo Film Co., Japan).
Antibodies to caspase-3, caspase-8, caspase-9, PARP, phospho-ATM (Ser1981), ATM, phospho-ATR (Ser428), phospho-Chk1 (Ser345), phospho-Chk2 (Thr68), Chk2, phospho-H2AX (Ser139), and phospho-p53 (Ser15) were purchased from Cell Signaling Technology. […]

[2] = target: T2, recombinant human Topoisomerase I (Homo sapiens, UniProt P11387); test: Topoisomerase I activity assay in a cell-free system; format: biochemical; conditions: purified recombinant human Topo I
T2 construct: purchased TopoGEN
T2 sequence (P11387 1-765): T1 sequence (P11387 1-765)
Protocol: Inhibition of Topo I activity by 9a in a cell-free system. A 1-delivative with an esterified 20-hydroxy group is expected to be activated by digestion with carboxylesterases. […] We authenticated the inhibitory effect of 9a against Topo I in a dose-dependent manner Thus, we confirmed that 9a is a new class of Topo I inhibitor.
One unit of recombinant human Topoisomerase I enzyme (TopoGEN) was pre-incubated for 20 min at 37° C. with vehicle, 9a, 1, 3, or SN-38 in a final volume of 20 μL reaction buffer (10 mM Tris-HCl, pH 7.9, 1 mM EDTA, 150 mM NaCl, 0.1% BSA, 0.1 mM spermidine, 5% glycerol) was then incubated with 250 ng of supercoiled plasmid DNA for 20 min. The supercoiled, relaxed, or nicked DNA was separated by 1% agarose gel in 1×TAE (Tris-Acetate-EDTA) buffer. Ethidium bromide stained agarose gel was photographed using Gel Doc XR (Bio-Rad).

ATM = test: Western blot analysis of ATM phosphorylation (DNA damage response); format: cell-based, human; conditions: after 0.5 h treatment
Protocol: Activation of ATM kinase was confirmed by detecting the phosphorylation of downstream effectors, Chk1, Chk2, and histone H2AX.
as §1
Antibodies to caspase-3, caspase-8, caspase-9, PARP, phospho-ATM (Ser1981), ATM, phospho-ATR (Ser428), phospho-Chk1 (Ser345), phospho-Chk2 (Thr68), Chk2, phospho-H2AX (Ser139), and phospho-p53 (Ser15) were purchased from Cell Signaling Technology. Antibodies against ATM, ATR, Chk1, and PUMA were from Santa Cruz Biotechnology. Antibodies against Topo I, Topo IIα, Topo IIβ, p53, FADD, BAX, Bcl-xL, and Bcl-2 were from BD Biosciences. Antibody to β-actin was purchased from EMD Millipore.

SKOV3 (Ovary cancer) = test: cells; format: cell-based, human; conditions: Table 6; read-out: In vitro cytotoxicity SKOV3 (Ovary cancer)

CC[C@@]1(OC(=O)CNC(Cc2ccc(OC)cc2)=NS(=O)(=O)c2ccc(C)cc2)C(=O)OCc2c1cc1n(c2=O)Cc2cc3ccccc3nc2-1 [Compound 9a]
mice showing complete regression ([1]; 5 mg/kg QD): Two of eight | antitumor activity in vivo (tumor growth) ([1]; 5 mg/kg QD, P<0.01, Student's t-test): significant antitumor activity | mice showing complete regression ([1]; 10 mg/kg QD): three of eight | antitumor activity in vivo (tumor growth) ([1]; 10 mg/kg QD, P<0.001, Student's t-test): significant antitumor activity | animal body weight change ([1]; 5 and 10 mg/kg QD, xenograft mice): no significant changes in body weight | protein levels of Topo I (Topo I): significantly inhibited protein levels of Topo I | Inhibition of Topo I activity (relaxation/nicking of supercoiled plasmid DNA) [2]: inhibited Topo I activity | ATM phosphorylation at Ser1981 (ATM): underwent phosphorylation at Ser1981 residue | IC50 (SKOV3 (Ovary cancer)): 17.1 ± 2.27 nM
